# Assay results from patent US20200308103A1, “NOVEL CRYSTALS OF HYDROXAMIC ACID DERIVATIVE, PRODUCTION METHOD THEREOF, AND PHARMACEUTICAL COMPOSITION” (FUJIFILM Toyama Chemical Co., Ltd., priority 2016, published 2020).
# Read-outs that look alike come from different tables or passages of the source.
# Key:
# [1] = Stability (2): storage at 60° C. and relative humidity 75%, HPLC purity; assay type: physicochemical; conditions: relative humidity 75%; for Stability: conclusion in words
# Experimental: The type I crystals, the type II crystals, and the type III crystals were stored under conditions of 60° C. and a relative humidity of 75%.
# These crystals were sampled over time, and their purity was measured by HPLC.
# (§1) Measurement wavelength: 254 nm
# Column: Ascentis Express C18, particle size: 5 μm, 4.6 mm in inside diameter×150 mm in length
# (§2) Column temperature: 40° C.
# (§3) Mobile phase A: water/acetic acid=1000/1 solution
# (§4) Mobile phase B: acetonitrile/acetic acid=1000/1 solution
# [2] = Hygroscopic properties (storage, weight change); assay type: physicochemical
# Experimental: The type I crystals and the type III crystals were stored under conditions of 25° C. and a relative humidity of 97%.
# These crystals were sampled over time, and the weights of the crystals were measured to determine the rates of change in weight.
# Rate of change in weight (%)=((B−A)/A)×100
# A: Weight of the crystals before the start of the test
# B: Weight of the crystals after the start of the test
# [3] = Stability (1): light irradiation, HPLC purity; assay type: physicochemical; conditions: for Stability against light: 1,200,000 lx·hr, conclusion in words
# Experimental: Test Example 5 Stability (1) The type I crystals, the type II crystals, and the type Ill crystals were placed in a light stability tester and irradiated with light (1,200,000 lx·hr) (light source: D65 lamp (FLR20S-D-EDL-D65/M)).
# The purity of the crystals of each type was measured by HPLC.
# as §1
# Column: Ascentis Express C18 (Sigma-Aldrich Japan), particle diameter: 5 μm, inner diameter 4.6 mm×length 150 mm
# as §2, §3, §4
# [4] = assay type: physicochemical
# Experimental: The type I crystals and the type III crystals were mixed, suspended in acetonitrile, and stirred at 5, 25, or 40° C.
# (§5) The mixture was sampled over time, and the crystal form was measured by powder X-ray diffraction.
# [5] = Solubility in aqueous sulfobutyl ether-β-cyclodextrin (SBEβCD) solution; assay type: physicochemical; conditions: for solubility: aqueous with cosolvent or surfactant or cyclodextrin, thermodynamic from solid, read-out: Solubility (dissolved / not dissolved)
# Experimental: 32.4 mL of water for injection was added to 6.00 g of sulfobutyl ether-β-cyclodextrin (CYCLOLAB Cyclodextrin Research & Development Laboratory Ltd.) (hereinafter also referred to as “SBEβCD”), and the solution was then stirred at 25° C. for 10 minutes. After the dissolution of the substance had been confirmed by visual observation, the mixed solution was cooled to 10° C. Thereafter, 0.50 g of type I crystal or type II crystal was added to the reaction mixture, and the obtained solution was then heated stepwise, until the crystal was dissolved in the solution.
# 32.5 mL of water for injection was added to 6.00 g of SBEβCD, and the solution was then stirred at 25° C. for 10 minutes. After the dissolution of the substance had been confirmed by visual observation, the mixed solution was cooled to 0° C., 5° C. or 10° C. Thereafter, 0.48 g of type 111 crystal was added to the reaction mixture, and the obtained solution was then stirred, until the crystal was dissolved in the solution.
# [6] = Physical stability (2): type I + type II crystals suspended in acetonitrile, crystal form by powder X-ray diffraction; assay type: physicochemical; conditions: acetonitrile (nonaqueous conditions), conclusion in words
# Experimental: The type I crystals and the type 11 crystals were mixed, suspended in acetonitrile, and stirred at 5, 25, or 40° C.
# as §5
# [7] = assay type: physicochemical; remark: listed apart in the source
# Experimental: The type I crystals and the type II crystals were mixed, suspended in a 40% aqueous acetonitrile solution, and stirred at 25° C.
# as §5
# [8] = target: uridyldiphospho-3-O-acyl-N-acetylglucosamine deacetylase (LpxC) (Pseudomonas aeruginosa, UniProt P47205); conditions: known from Patent Literature 1; cited from earlier work
# Sequence of uridyldiphospho-3-O-acyl-N-acetylglucosamine deacetylase (LpxC) (P47205 whole entry): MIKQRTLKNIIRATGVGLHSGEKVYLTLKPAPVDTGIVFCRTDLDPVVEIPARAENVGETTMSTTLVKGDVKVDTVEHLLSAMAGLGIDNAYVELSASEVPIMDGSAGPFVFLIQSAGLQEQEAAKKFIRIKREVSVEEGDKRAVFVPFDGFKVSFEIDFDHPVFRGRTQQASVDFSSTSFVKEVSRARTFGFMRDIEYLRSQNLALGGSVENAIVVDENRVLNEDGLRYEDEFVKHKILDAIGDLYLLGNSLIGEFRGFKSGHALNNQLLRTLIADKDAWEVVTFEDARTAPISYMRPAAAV
# [9] = 25° C., relative humidity 97%, 4 weeks
# [10] = after light irradiation 1,200,000 lx·hr, D65 lamp
# [11] = light stability test, before start of test
SMILES,HPLC purity (%) ([1]; 4 weeks),HPLC purity (%) ([1]; 7 weeks),HPLC purity (%) ([1]; 13 weeks),HPLC purity (%) ([1]; before start of test),Stability [1],"Rate of change in weight (%) [2, 9] [%]",Stability against light [3],"HPLC purity (%) [3, 10] [%]","HPLC purity (%) [3, 11] [%]",Physical stability / crystal transformation [4],Temperature at which the crystal was dissolved in the solution [5] [°C],Physical stability / crystal transformation [6],Physical stability / crystal transformation [7],further results
"CNC(=O)[C@@](C)(C(=O)NO)N(C)C(=O)c1ccc(C#Cc2ccc([C@H](O)CO)cc2)cc1 [Type III crystals, (2S)-2-((4-((4-((1S)-1,2-dihydroxyethyl)phenyl)ethynyl)benzoyl)(methyl)amino)-N-hydroxy-N′,2-dimethylmalonamide]",99.3,98.6,94.8,99.5,more stable than the type I crystals,0.10,more stable against light than the type I crystals,99.4,99.5,more stable than the type I crystals,≤ 0,more stable than the type I crystals and the type II crystals,,"HPLC purity (%) ([1]; 13 weeks, listed as type III crystals): approximately 95%; Stability ([1]; listed as type Ill crystals): most stable; Rate of change in weight (%) ([2]; 25° C., relative humidity 97%, 16 weeks): 0.03%; Rate of change in weight ([2]; 25° C., relative humidity 97%, time not stated): ≤ 0.1%; Hygroscopic properties ([2]; conclusion in words): low; solubility ([5]; 0 °C, 0 ° C.): > 14.8 mg/mL; solubility ([5]; 5 °C, 5 ° C.): > 14.8 mg/mL"
"CNC(=O)[C@@](C)(C(=O)NO)N(C)C(=O)c1ccc(C#Cc2ccc([C@H](O)CO)cc2)cc1 [Type I crystals, (2S)-2-((4-((4-((1S)-1,2-dihydroxyethyl)phenyl)ethynyl)benzoyl)(methyl)amino)-N-hydroxy-N′,2-dimethylmalonamide, reference compound]",98.7,97.6,90.4,99.2,,0.80,reduced,96.1,99.2,transformed to the type III crystals,25,transformed to the type III crystals,transformed to the type II crystals,"HPLC purity (%) ([1]; 13 weeks, listed as type I crystals): approximately 90%; Rate of change in weight (%) ([2]; 25° C., relative humidity 97%, 13 weeks): 1.09%; Rate of change in weight (%) ([2]; 25° C., relative humidity 97%, 13 weeks, listed as type I crystals): ≥ 1%; solubility ([5]; 10 °C, 10 ° C.): < 15.4 mg/mL; solubility ([5]; 15 °C, 15 ° C.): < 15.4 mg/mL; solubility ([5]; 20 °C, 20 ° C.): < 15.4 mg/mL; solubility ([5]; 25 °C, 25 ° C.): > 15.4 mg/mL"
"CNC(=O)[C@@](C)(C(=O)NO)N(C)C(=O)c1ccc(C#Cc2ccc([C@H](O)CO)cc2)cc1 [Type II crystals, (2S)-2-((4-((4-((1S)-1,2-dihydroxyethyl)phenyl)ethynyl)benzoyl)(methyl)amino)-N-hydroxy-N′,2-dimethylmalonamide]",98.7,97.7,91.2,99.1,more stable than the type I crystals,,,98.5,99.1,,25,transformed to the type III crystals,more stable than the type I crystals,"HPLC purity (%) ([1]; 13 weeks, listed as type II crystals): approximately 91%; Stability against light ([3]; listed as type 11 crystals): more stable against light than the type I crystals"
"CNC(=O)[C@@](C)(C(=O)NO)N(C)C(=O)c1ccc(C#Cc2ccc([C@H](O)CO)cc2)cc1 [compound A, (2S)-2-((4-((4-((1S)-1,2-dihydroxyethyl)phenyl)ethynyl)benzoyl)(methyl)amino)-N-hydroxy-N′,2-dimethylmalonamide]",,,,,,,,,,,,,,LpxC inhibitory activity [8]: excellent
